Measured values reported in patent US20070092925A1, “Method of treating skin by delivering specific protein stabilizers/protectors to skin proteins and methods of selecting said stabilizers” (Conopco, Inc., d/b/a UNILEVER, priority 2005, published 2007).
“Also recorded” adds a separate entry of the source.

Assays:
[1] = target: T1, trypsin from bovine pancreas (Bos taurus, UniProt P00760); assay: trypsin autolysis followed by fluorescence spectroscopy (ratio R versus time, FIG. 2); type: biochemical; conditions: 0.1 M TRIS buffer pH 7.5, compared with water
T1 construct: purchased Sigma; host or cells: bovine pancreas
T1 sequence (P00760 24-246): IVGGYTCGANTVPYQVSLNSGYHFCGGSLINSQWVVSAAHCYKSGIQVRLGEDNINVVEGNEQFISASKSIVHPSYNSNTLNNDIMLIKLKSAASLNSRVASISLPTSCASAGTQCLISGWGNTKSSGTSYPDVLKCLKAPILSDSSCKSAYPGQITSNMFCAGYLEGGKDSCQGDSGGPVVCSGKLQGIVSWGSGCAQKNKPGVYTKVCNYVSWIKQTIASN
Source text: (§1) The process of serine protease (e.g., trypsin) autolysis can be followed by using fluorescence spectroscopy. […] Consequently, the autolysis of trypsin and subsequent unfolding is accompanied by spectral changes that can be detected by obtaining fluorescence spectra at various time points after preparing a fresh solution of trypsin.
(§2) The iso-emissive points (fluorescence intensity independent of time) at 305 nm and 360 nm are typical of a situation where one fluorescent component (native protein) is the source of the other fluorescent component(s) (denatured protein and cleaved fragments). Applicants quantified the change in the trypsin spectrum by taking a ratio, R, of the area between 320 nm and 330 nm and the area between 380 nm and 400 nm: [formula]
(§3) The numerator represents the relative amount of native protein in the sample and the denominator represents relative amount of denatured protein and cleaved fragments. R therefore is a measure of how far the autolysis process has progressed.
(§4) Protocol—Fresh solutions of trypsin (2.5 mg/ml) were prepared by mixing the appropriate amount of solid trypsin from bovine pancreas (Sigma) with appropriate amounts of buffer solution (1M, pH 7.5; VWR), water, and protein stabilizing compound (pyrollidone carboxylic acid—Sigma Ultrapure; trimethylamine N-oxide—Fluka Purum; glycerin—J.T. Baker; 1-Propanaminium, 2,3-dihydroxy-N,N,N-trimethyl-, chloride—synthesized and purified in house), and/or protein destabilizing compound (urea—J.T. Baker Ultrapure Bioreagent); sodium dodecyl sulfate—ICN Ultrapure). All chemicals were used as supplied. Within minutes of dissolving the solid trypsin the solution was transferred into a quartz fluorescence cuvette and placed inside a Perkin Elmer LS 50 B fluorescence spectrometer. Fluorescence spectra were subsequently measured, either every 5 minutes or every 10 minutes. The excitation wavelength was 280 nm.
A seen in FIG. 2, applicants plotted trypsin autolysis as followed by fluorescence spectroscopy in various media with 0.1 M TRIS buffer pH 7.5. These media include: 0.5 M PCA, i.e., pyrollidone carboxylic acid (closed triangles); 1 M TMAO (closed diamonds); 1 M glycerol (closed circles); 1M 1-propanaminium, 2,3-dihydroxy-N,N,N-trimethyl-,chloride (crosses); water (closed squares); 1 M urea (open triangles); and 0.5 mM SDS, i.e., sodium dodecyl sulphate (open circles).
The ability of various compounds or combinations of compounds to increase or depress the rate of trypsin autolysis can be compared by plotting R as a function of time as is shown, for example, in FIG. 2.

[2] = target: T1, trypsin from bovine pancreas; assay: trypsin autolysis followed by fluorescence spectroscopy in the presence of the denaturant SDS (FIG. 3); type: biochemical
Source text: as §1, §2, §3, §4
For reference purposes, also shown are autolysis traces in the presence of 0.5 mM SDS without any protein stabilizer (open squares) and without any SDS or protein stabilizer (closed squares).

[3] = 1.0 M stabilizer plus 0.5 mM SDS

| Compound | rate of trypsin autolysis (R as a function of time) ([1]; […] compound) | rate of trypsin autolysis in the presence of SDS [2, 3] | further results |
| --- | --- | --- | --- |
| C[N+](C)(C)CC(O)CO.[Cl-] (stereo not drawn) [1-Propanaminium, 2,3-dihydroxy-N,N,N-trimethyl-, chloride] | exceed that of both glycerol and TMAO | – | – |
| O=C1CC[C@@H](C(=O)O)N1 [PCA, pyrollidone carboxylic acid] | – | – | rate of trypsin autolysis (R as a function of time) ([1]; 0.5 M compound): virtual absence of autolysis; also recorded: by far the strongest ability of any of the compounds tested to stabilize trypsin; rate of trypsin autolysis in the presence of SDS ([2]; 0.5 M stabilizer plus 0.5 mM SDS): able to “protect” proteins against a denaturing force; also recorded: still slower than in the absence of both SDS and a protein stabilizer |
| CCCCCCCCCCCCOS(=O)(=O)[O-].[Na+] [SDS, sodium dodecyl sulfate] | – | – | rate of trypsin autolysis (R as a function of time) ([1]; 0.5 mM compound): significant increase in the rate of trypsin hydrolysis |
| C[N+](C)(C)[O-] [TMAO, trimethylamine N-oxide] | exceeds glycerol in its ability to stabilize trypsin against autolysis | able to “protect” proteins against a denaturing force; also recorded: still slower than in the absence of both SDS and a protein stabilizer | – |
| OCC(O)CO [glycerol] | significantly reduces the rate of trypsin autolysis | able to “protect” proteins against a denaturing force | – |
| NC(N)=O [urea] | significant increase in the rate of trypsin hydrolysis | – | – |
